How the values were obtained:
Type in all cases: physicochemical
[1] = Etching (dissolution) rate of deposited layers in IPA/water mixed solvent; details: IPA 60 wt %; for etching rate of the layer: identical etching conditions
Source text: In the present invention, a larger etching rate means a higher dissolution rate. In addition, a larger etching rate means a higher solubility of a layer having a material of interest in the solvent (polar solvent). FIG. 3 is a graph showing thickness changes in the compound 1 and the compound A2 over an etching time. […] On the other hand, the thickness of a layer (layer B) formed of the compound A2 as a heterocyclic compound reduces over time. When the etching rates of the respective layers are calculated with their etching conditions made identical to each other, the etching rate of the layer A is 0.008 nm/sec but the etching rate of the layer B is 0.87 nm/sec, that is, a ratio of the latter to the former is about 100.

[2] = Solubility in IPA/water mixed solvent (FIG. 4); details: IPA concentration of 80 wt %
Source text: The solubility of a compound as a constituent material for each layer in the IPA/water mixed solvent varies depending on the weight ratio of IPA in the mixed solvent. FIG. 4 is a graph showing the solubilities of the compound 1 (fused polycyclic hydrocarbon compound) and the compound A2 (heterocyclic compound) in the IPA/water mixed solvent (polar solvent). Here, in the graph of FIG. 4, the axis of abscissa indicates the weight percent concentration of IPA in the IPA/water mixed solvent, and the axis of ordinate indicates the amount of the fused polycyclic hydrocarbon compound or heterocyclic compound to dissolve in 1 g of the solvent.

[3] = Etching of sacrificial layer by spin washing method (FIG. 6); details: 60-wt % aqueous solution of IPA; thickness by spectroscopic ellipsometer
Source text: The spin washing method involves first dropping a polar solvent 81 onto the sacrificial layer 30 (FIG. 5B), holding the resultant for a predetermined time period (FIG. 5C), then rotating the substrate 10 to splash the polar solvent 81, and drying the substrate 10 by means of the rotation (FIG. 5D). The spin washing method in which the process illustrated in FIGS. 5A to 5D is defined as one cycle is typically repeated a plurality of times. It is to be noted that the polar solvents 81 to be used in the cycle to be performed a plurality of times may be the same every time, or mixed solvents having different compositional ratios may be used in part of the times or every time.
(§1) FIG. 6 is a graph showing a relationship between the total time of etching by the spin washing method and the thickness of the sacrificial layer formed of the compound A2. It is to be noted that in the graph of FIG. 6, the compound A2 is used as a constituent material for the sacrificial layer 30 and a 60-wt % aqueous solution of IPA is used as a polar solvent. […] The thickness of the sacrificial layer was measured with a spectroscopic ellipsometer (HORIBA). […] Although the graph shown in FIG. 6 is merely a specific example, the number of repetition of the process based on the spin washing method can be decided by utilizing the quantitative tendency of the sacrificial layer 30 to reduce shown in FIG. 6.

[4] = Etching of sacrificial layer by dipping method (FIG. 9); details: 60-wt % aqueous solution of IPA; thickness by spectroscopic ellipsometer
Source text: The dipping method is a method involving loading the substrate 10 in a container storing the polar solvent, dipping the substrate 10 in the polar solvent for a certain time period, and then taking the substrate 10 out of the container. Upon dipping of the substrate 10 in the polar solvent, (at least part of) the sacrificial layer 30 is eluted. At this time, when the concentration of the water-soluble polymer material constituting the intermediate layer 40, which can be dissolved together with the sacrificial layer 30, in the polar solvent is low, the polar solvent can be reused as the polar solvent to be used in first dipping.
The dipping method is performed by, for example, a method to be described below. […]
as §1, with “9” for “6”, “dipping” for “spin washing”, “A2.” for “A2. It is to be noted that in the graph of FIG. 6, the compound A2 is used as a constituent material for the sacrificial layer 30 and a 60-wt % aqueous solution of IPA is used as a polar solvent.”, “9. […]” for “6.”

rate at which the sacrificial layer is etched by one spin washing [3] | ratio of etching rate of layer B (compound A2) to layer A (compound 1) [1] | rate at which the sacrificial layer was etched by the dipping method [4] [nm/time] | SMILES | etching rate of the layer [1] [nm/s] | amount dissolving in 1 g of the IPA/water mixed solvent [2] [µg]
– | – | – | CC1(C)c2cc(-c3ccc4ccc5cccc6ccc3c4c56)ccc2-c2ccc(-c3ccc4ccc5cccc6ccc3c4c56)cc21 [compound 1] | 0.008 | 5
about 6.7 nm | about 100 | 3.7 | CC1(C)c2ccccc2-c2ccc(-c3ccc4ccc5ccc(-c6ccc7c(c6)C(C)(C)c6ccccc6-7)nc5c4n3)cc21 [compound A2] | 0.87 | 73
